Assay results as given in patent publication US10760052B2, “Method of inhibiting tau phosphorylation” (priority 2012, dated 2020).
Read-outs that look alike come from different tables or passages of the source.

Target: T1, mu opiate receptor (MOR) (Rattus norvegicus, UniProt P33535)
T1 construct: from tissue; host or cells: striatum (membrane preparation)
Format: biochemical
Details: for [35S]GTPγS binding, FLNA-Binding Compound as Agonist at 0.1 μM: 0.1 μM compound; for [35S]GTPγS binding, FLNA-Binding Compound as Agonist at 0.1 μM / [35S]GTPγS binding, FLNA-Binding Compound as Agonist at 1 μM: striatal membranes; for [35S]GTPγS binding, FLNA-Binding Compound as Agonist at 0.1 μM / [35S]GTPγS binding, FLNA-Binding Compound as Agonist at 1 μM + BFNA / [35S]GTPγS binding, FLNA-Binding Compound as Agonist at 1 μM: Series C-2; for [35S]GTPγS binding, FLNA-Binding Compound as Agonist at 1 μM + BFNA: 1 μM compound + 1 μM β-FNA (selective MOR antagonist); for [35S]GTPγS binding, FLNA-Binding Compound as Agonist at 1 μM: 1 μM compound

[1] = [35S]GTPγS binding to Gαo in striatal membranes, compound 0.1 μM
[2] = [35S]GTPγS binding to Gαo in striatal membranes, compound 1 μM
[3] = [35S]GTPγS binding to Gαo in striatal membranes, compound 1 μM plus 1 μM β-funaltrexamine (MOR antagonist)

T1 sequence (P33535 whole entry): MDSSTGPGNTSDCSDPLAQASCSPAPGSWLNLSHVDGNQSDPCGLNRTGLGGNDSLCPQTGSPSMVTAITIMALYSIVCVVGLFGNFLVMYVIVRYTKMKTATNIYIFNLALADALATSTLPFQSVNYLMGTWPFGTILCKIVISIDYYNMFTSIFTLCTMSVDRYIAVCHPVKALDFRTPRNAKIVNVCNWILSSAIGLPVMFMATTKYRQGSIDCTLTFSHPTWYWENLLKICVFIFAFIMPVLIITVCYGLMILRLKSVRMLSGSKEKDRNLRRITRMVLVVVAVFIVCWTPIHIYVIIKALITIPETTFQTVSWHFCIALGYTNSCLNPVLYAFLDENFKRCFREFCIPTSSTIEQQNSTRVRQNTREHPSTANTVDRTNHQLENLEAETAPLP

| Structure (SMILES) | % DAMGO (0.1 μM) [%] | % DAMGO (1 μM) [%] | % DAMGO + BFNA [%] | Concentration of FLNA-Binding Compound as Agonist 0.1 μM [1] [%] | Concentration of FLNA-Binding Compound as Agonist 1 μM [2] [%] | Concentration of FLNA-Binding Compound as Agonist 1 μM + BFNA [3] [%] | [35S]GTPγS binding, FLNA-Binding Compound as Agonist at 0.1 μM [%] | [35S]GTPγS binding, FLNA-Binding Compound as Agonist at 1 μM + BFNA [%] | [35S]GTPγS binding, FLNA-Binding Compound as Agonist at 1 μM [%] | Concentration of FLNA-Binding Compound as Agonist 0.1 μM [%] | Concentration of FLNA-Binding Compound as Agonist 1 μM [%] | Concentration of FLNA-Binding Compound as Agonist 1 μM + BFNA [%] |
| --- | --- | --- | --- | --- | --- | --- | --- | --- | --- | --- | --- | --- |
| CC(=O)c1ccc(S(=O)(=O)N2CCC3(CC2)NC(=O)CN3Cc2ccccc2)cc1 [Compound C0085M] | 105.5 | 78.4 | 112.6 | 211.6 | 246.2 | 43.7 | – | – | – | – | – | – |
| O=S(=O)(c1ccc(Br)cc1C(F)(F)F)N1CCC2(CC1)OCCN2S(=O)(=O)c1ccc(Br)cc1C(F)(F)F [Compound C0068] | 53.4 | 83.8 | 307.8 | 107.2 | 263.1 | 165.9 | – | – | – | – | – | – |
| CC1CN(CC(O)COc2ccc(Cl)cc2)CC(C)O1 (stereo not drawn) [Compound A0047] | 118.8 | 92.4 | 157.6 | 233.0 | 255.0 | 116.5 | – | – | – | – | – | – |
| COc1cccc(S(=O)(=O)N2CCC3(CC2)OCCN3S(=O)(=O)c2cccc(OC)c2)c1 [Compound C0002] | 51.4 | 33.9 | 6.1 | 88.4 | 93.8 | 3.9 | – | – | – | – | – | – |
| CC1CN(CC(O)COc2cccc(N(C)C)c2)CC(C)O1 (stereo not drawn) [Compound A0042] | 75.2 | 84.5 | 121.1 | 147.5 | 233.1 | 89.5 | – | – | – | – | – | – |
| COc1ccc(S(=O)(=O)N2CCSC23CCNCC3)cc1 [S-C0027] | 74.2 | 84.4 | 98.1 | – | – | – | 156.2 | 56.2 | 286.8 | – | – | – |
| COCOc1ccc(CCC(=O)CC2c3c(cc4c(c3OC)OCO4)CC[N+]2(C)C)cc1 (stereo not drawn) [Compound B0040] | 93.2 | 105.1 | 169.6 | 146.0 | 243.3 | 55.3 | – | – | – | – | – | – |
| COc1ccc(CCC(O)CC2c3c(cc4c(c3OC)OCO4)CCN2C)cc1 (stereo not drawn) [Compound B0048] | 104.8 | 87.8 | 298.5 | 185.1 | 223.4 | 78.5 | – | – | – | – | – | – |
| O=S(=O)(c1ccc(Cl)cc1)N1CCC2(CC1)OCCN2S(=O)(=O)c1ccc(Cl)cc1 [Compound C0067] | 82.9 | 81.5 | 97.1 | 142.7 | 179.0 | 33.5 | – | – | – | – | – | – |
| COc1ccc(CCC(=O)CC2c3c(cc4c(c3OC)OCO4)CC[N+]2(C)C)cc1 (stereo not drawn) [Compound B0016] | 99.2 | 79.9 | 109.4 | 167.7 | 213.6 | 72.2 | – | – | – | – | – | – |
| CC1CCC(C(C)C)C(OCC(O)CN2CC(C)OC(C)C2)C1 (stereo not drawn) [Compound A3333] | 88.9 | 101.0 | 136.7 | 170.7 | 328.3 | 65.9 | – | – | – | – | – | – |
| O=S(=O)(c1ccc(F)cc1)N1CCC2(CC1)OCCN2S(=O)(=O)c1ccc(F)cc1 [Compound C0029] | 91.2 | 113.1 | 37.8 | 175.4 | 308.8 | 16.6 | – | – | – | – | – | – |
| O=C1CN(Cc2ccccc2)C2(CCN(C3CCCCC3)CC2)N1 [C0137M (P7)] | 95.6 | 78.1 | 115.1 | – | – | – | 180.8 | 55.8 | 193.8 | – | – | – |
| COc1ccc(S(=O)(=O)N2CCC3(CC2)OCCN3S(=O)(=O)c2ccc(C(C)=O)cc2)cc1 [Compound C0048] | 144.2 | 105.3 | 204.3 | – | – | – | – | – | – | 209.1 | 245.3 | 89.9 |
| CC(=O)c1ccc(C(=O)N2CCC3(CC2)OCCN3S(=O)(=O)c2ccc(C(C)=O)cc2)cc1 [Compound C0052] | 74.8 | 69.9 | 97.0 | 108.4 | 162.8 | 42.7 | – | – | – | – | – | – |
| COc1ccc(OCC(O)Cn2ccc3ccccc32)cc1 (stereo not drawn) [Compound A0077] | 170.5 | 132.3 | 470.5 | 300.1 | 334.7 | 103.5 | – | – | – | – | – | – |
| CC(=O)Nc1ccc(S(=O)(=O)N2CCC3(CC2)OCCN3S(=O)(=O)c2ccc(NC(C)=O)cc2)cc1 [Compound C0013] | 91.0 | 108.9 | 61.8 | 156.6 | 301.2 | 39.6 | – | – | – | – | – | – |
| COc1c2c(cc3c1C(CC(=O)CCc1ccccc1)N(C)CC3)OCO2 (stereo not drawn) [Compound B0050] | 58.1 | 96.4 | 294.0 | 98.2 | 211.0 | 48.8 | – | – | – | – | – | – |
| CC1CCC(C(C)C)C(OCC(CN2CC(C)OC(C)C2)NCc2ccccc2)C1 (stereo not drawn) [Compound A0033] | 79.4 | 92.2 | 159.9 | 155.8 | 254.6 | 118.2 | – | – | – | – | – | – |
| COc1c2c(cc3c1C(CC(O)CCc1ccccc1)[N+](C)(C)CC3)OCO2 (stereo not drawn) [Compound B0052] | 58.1 | 69.3 | 246.4 | 98.2 | 151.7 | 40.9 | – | – | – | – | – | – |
| Cc1ccccc1S(=O)(=O)N1CCC2(CC1)OCCN2S(=O)(=O)c1ccccc1C [Compound C0015] | 78.5 | 78.9 | 193.0 | 138.7 | 204.7 | 126.8 | – | – | – | – | – | – |
| COc1ccc(S(=O)(=O)N2CCOC23CCCNC3)cc1 (stereo not drawn) [Compound C0145M-3] | 112.2 | 88.7 | 95.3 | – | – | – | 193.0 | 87.0 | 289.2 | – | – | – |
| COc1c2c(cc3c1OCO3)CCN(CC(O)COC1CC(C)CCC1C(C)C)C2 (stereo not drawn) [Compound A0061] | 70.7 | 85.5 | 26.8 | 110.3 | 197.1 | 10.7 | – | – | – | – | – | – |
| OC(COc1ccc(Br)c(F)c1)CN1CCCCC1 (stereo not drawn) [Compound A0058] | 45.3 | 106.0 | 150.1 | 70.7 | 244.3 | 59.9 | – | – | – | – | – | – |
| COc1ccc(S(=O)(=O)N2CCC3(CC2)OCCN3S(=O)(=O)c2ccc(OC)c(OC)c2)cc1OC [Compound C0049] | 73.5 | 90.1 | 184.1 | 106.6 | 210.0 | 81.0 | – | – | – | – | – | – |
| CC1CCC(C)C(OCC(O)CN2CC(C)OC(C)C2)C1 (stereo not drawn) [Compound A0022] | 90.0 | 80.9 | 53.7 | 154.1 | 216.0 | 28.0 | – | – | – | – | – | – |
| OC(COc1ccc(Br)c(F)c1)CN1CCSCC1 (stereo not drawn) [Compound A0059] | 63.5 | 56.4 | 214.8 | – | – | – | – | – | – | 99.2 | 129.9 | 85.7 |
| COc1ccc(S(=O)(=O)N2CCC3(CC2)NCCO3)cc1 [Compound C0026] | 107.7 | 105.6 | 48.3 | – | – | – | 207.2 | 21.2 | 288.4 | – | – | – |
